Columns and labels:
mouse BV-2 cells = assay: Expression of inflammatory factors in LPS-stimulated BV-2 cells (QPCR); type: cell-based; conditions: LPS 300 ng/ml, compound 10-300 μM, 24 hours
Procedure: Neuroinflammation in the brain of AD is one of the causes of cognitive decline. Microglia are key cells that mediate neuroinflammation. The inventors studied whether PL402 is effective in inhibiting neuroinflammation by detecting the expression of inflammatory factors on mouse BV-2 cells.
BV-2 cells culture and stimulation: BV-2 cells were cultured in DMEM, plated in a 24-well plate and cultured for 24 hours. Then PL402 (0, 10, 30, 100, or 300 μM) and LPS (300 ng/ml) were added, and then incubated for 24 hours. RNA was extracted with Trizol, and the expression of related inflammatory factors was detected by QPCR.

[1] = system: neuroblastoma cells SK—N—SH cells; assay: Total Aβ level in supernatant of SK-N-SH cells (ELISA); type: cell-based; conditions: 24 hours
Procedure: Aβ is the main pathogenic protein of AD. The inventors investigated whether PL402 has an effect on inhibiting Aβ production by detecting the level of Aβ in neuroblastoma cells SK—N—SH cells (which can secrete Aβ).
Culture of SK—N—SH and detection of Aβ: SK—N—SH cells were cultured in DMEM, plated in a 24-well plate and cultured for 24 hours. PL402 (0, 10, 30, 100, or 300 μM) was added, and then incubated for 24 hours. The supernatant was collected and the total Aβ protein level was detected by ELISA.

[2] = system: APP/PS1 transgenic male mice (AD mice); assay: Morris water maze test in AD mice; type: in vivo; conditions: 50 mg/kg daily intragastric, 90 days; for learning and memory abilities of AD mice after administration: Morris water maze
Procedure: Twenty 5-6-month-old APP/PS1 transgenic male mice (AD mice) were selected and divided into a model group and a polysaccharide administration group according to the random number table method. PL402 was administered daily by intragastric administration (50 mg/kg), and 10 non-transgenic mice were used in a negative control group (without administration). After 90 days of consecutive administration, Morris water maze behavior test was used to detect the effect of PL402 on the learning and cognitive functions of APP/PS1 mice.
In this experiment, a classic Morris water maze test procedure was used, which includes a place navigation test and a space exploration test. The duration of the experiment was 7 days in total, and the space exploration test was introduced at Days 4 and 7.
The selection of animals and the “Morris water maze experiment” was performed as described in Example 3, to detect the effect of PL404 on the animal learning and memory abilities.

[3] = system: human neural progenitor cell (differentiated by humanized iPSC); assay: EdU incorporation, proliferation of human neural progenitor cells; type: cell-based; conditions: dosage 0, 1, 3, 10, 30 or 100 μM, vs untreated control
Procedure: The inventors investigated whether PL404 has the effect on promoting proliferation by detecting the EdU incorporation of a human neural progenitor cell (differentiated by humanized iPSC). The dosage of PL404 was 0, 1, 3, 10, 30, or 100 μM.
The method similar to that in Example 7 was used, except that compound PL404 was replaced by PL405, and by detecting the EdU incorporation of human neural progenitor cells, whether PL405 has the effect on promoting proliferation was investigated.

Row | SMILES | expression of inflammatory factor IL-1β (mouse BV-2 cells) | expression of inflammatory factor IL-6 (mouse BV-2 cells) | production of Aβ (total Aβ protein level) ([1]; compound 10-300 μM, ELISA of supernatant) | concentration at which the inhibition of Aβ production is most desirable ([1]; tested 0, 10, 30, 100, 300 μM) [µM] | learning and memory abilities of AD mice after administration [2] | escape latency (latency to reach the platform) compared with the model group ([2]; place navigation test, 50 mg/kg) | increase of human neural progenitor cell proliferation level compared with the control group [3]
1 | COc1cc(/C=C/C(=O)O[C@@H]2OC(C)[C@H](O[C@@H]3OC(C)[C@H](O)C(O)C3O)C(O)C2O)ccc1O (stereo partly drawn) [PL402] | significantly inhibit | significantly inhibit | significantly inhibit | 100 | significantly improved | statistically significant decrease | 
2 | COc1cc(/C=C/C(=O)OC2C(C)OC(OC3C(C)OC(O)C4OC(C)(C)OC34)C(O)C2O)ccc1O (stereo not drawn) [PL404] |  |  |  |  | significantly improved |  | about 30%
3 | COc1cc(/C=C/C(=O)OC2C(C)OC(OC3C(C)OC(O)C(O)C3O)C(O)C2O)ccc1O (stereo not drawn) [PL405] |  |  |  |  |  |  | about 60%

— patent publication US11578092B2, “Compound for preventing or treating neurodegenerative disease and application thereof” (Shanghai Pharmaceuticals Holding Co., Ltd., priority 2018, dated 2023)
